According to patent US20120114588A1, “IBAT INHIBITORS FOR TREATMENT OF METABOLIC DISORDERS AND RELATED CONDITIONS” (ALBIREO AB, priority 2010, published 2012):
pIC50: −log10 of the molar value.

How the values were obtained:
[1] = target: T1, Ileal Bile Acid Transporter Human (Homo sapiens, UniProt Q12908); test: ISBT Hu HEK Uptake SPA: Human HEK Glycocholic acid Uptake Radiometric SPA; assay type: cell-based; conditions: human IBAT in HEK cells
T1 construct: expressed in transfected cells; host or cells: HEK
T1 sequence (Q12908 1-348): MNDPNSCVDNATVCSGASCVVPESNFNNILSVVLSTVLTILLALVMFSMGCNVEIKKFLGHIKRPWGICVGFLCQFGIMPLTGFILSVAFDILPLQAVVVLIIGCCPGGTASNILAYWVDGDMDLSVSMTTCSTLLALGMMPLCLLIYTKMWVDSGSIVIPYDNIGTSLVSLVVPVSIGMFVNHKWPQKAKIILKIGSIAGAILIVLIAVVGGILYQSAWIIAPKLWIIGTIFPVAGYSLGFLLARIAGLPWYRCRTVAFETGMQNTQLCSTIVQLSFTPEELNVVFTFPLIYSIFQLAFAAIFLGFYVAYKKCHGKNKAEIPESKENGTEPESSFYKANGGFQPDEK
Method: ISBT Hu HEK Uptake SPA 13203 IBAT HUM Ileal Bile Acid Transporter Human HEK Glycocholic acid Uptake Radiometric—SPA Inhibitor IC50 Mean IC50 (nM) was determined for the compounds of examples 1-14

IBAT = target: T2, IBAT (Mus musculus, UniProt P70172); test: 75SeHCAT intestinal absorption (faecal excretion / body retention) in ApoE knock out mice; assay type: in vivo; conditions: single oral dose 0.156 μmol/kg, 75SeHCAT given 30 min later, 24 h collection, read-out: % inhibition 0.156 μmol/kg (mean IBAT inhibitory effect)
T2 construct: from tissue; host or cells: living ApoE knock-out C57BL/6 mice (intestine, in vivo)
T2 sequence (P70172 1-348): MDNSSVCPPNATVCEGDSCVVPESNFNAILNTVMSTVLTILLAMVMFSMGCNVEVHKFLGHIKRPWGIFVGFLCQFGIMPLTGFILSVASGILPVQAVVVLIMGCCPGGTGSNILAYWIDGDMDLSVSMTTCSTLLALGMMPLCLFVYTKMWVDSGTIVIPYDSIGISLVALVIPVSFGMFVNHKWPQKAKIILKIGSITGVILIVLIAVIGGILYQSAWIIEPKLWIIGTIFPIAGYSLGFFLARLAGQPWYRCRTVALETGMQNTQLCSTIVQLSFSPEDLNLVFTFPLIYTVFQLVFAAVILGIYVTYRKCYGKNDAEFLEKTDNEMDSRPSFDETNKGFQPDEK
Method: Species Mouse; Strain ApoE knock out; Substrain C57BL/6; Sex Female; Total No. of animals 70; Body weight range 20 g to 22 g; Supplier Mollegaard's Breeding (Skensved, Denmark); Identification method ID cards (bar code).
Acclimatisation At least one week at the Section of Laboratory; Animal Resource at AstraZeneca; Housing conditions Kept five by five in cages (Makrolon III, 7 dm2) in a room with regulated temperature ([…]), relative humidity (40% to 60%) and a 12/12 hours light/dark cycle. Diet Free access to R3 pellets (Lactamin, Vadstena, Sweden) during the housing and experimental period. Water Free access to tap water during the housing and experimental period.
Volume(s) of administration 0.1 mL per mousen […]
The animals were orally administered vehicle or Example 14 (0.156 , 0.625 or 2.5 pmol/kg) at 13:00 o'clock on the experimental day. […] The gamma radioactivities of 75SeHCAT in the faeces and in the gall bladder-intestine were separately counted by 1282 CompuGamma CS Gamma counter (Wallac oy, Turku, Finland). The stability as well as the quantity of the 75SeHCAT administered to each mouse, were controlled with an additional 75SeHCAT aliquot following the same experimental process as other tested samples in the study. […]
The mean IBAT inhibitory effect (%) at a dose (pmol/kg): 0.156 was determined for the compounds of examples 1-14 and is reported in Table 1.

pIC50 [1]: 9.82
inhibition at 0.156 µmol/kg (IBAT): 63%
Structure (SMILES): CCCCC1(CCCC)CN(c2ccccc2)c2cc(SC)c(OCC(=O)N[C@@H](C(=O)N[C@@H](CC)C(=O)O)c3ccc(O)cc3)cc2S(=O)(=O)C1 [Example 11, 1,1-Dioxo-3,3-dibutyl-5-phenyl-7-methylthio-8-(N-{(R)-α-[N′-((S)-1-carboxypropyl)carbamoyl]-4-hydroxybenzyl}carbamoylmethoxy) -2,3,4,5-tetrahydro-1,5-benzothiazepine]
